Drawing on ChEMBL document CHEMBL1133352, “Synthesis and endothelin receptor binding activity of synthetic analogues of RES-1149-2” (Bioorg Med Chem Lett, 2000), this text covers IC50 for 5 compounds.

In assay [1] the target is T1, Endothelin-1 receptor (Homo sapiens, UniProt P25101).
T1 sequence (P25101 whole entry): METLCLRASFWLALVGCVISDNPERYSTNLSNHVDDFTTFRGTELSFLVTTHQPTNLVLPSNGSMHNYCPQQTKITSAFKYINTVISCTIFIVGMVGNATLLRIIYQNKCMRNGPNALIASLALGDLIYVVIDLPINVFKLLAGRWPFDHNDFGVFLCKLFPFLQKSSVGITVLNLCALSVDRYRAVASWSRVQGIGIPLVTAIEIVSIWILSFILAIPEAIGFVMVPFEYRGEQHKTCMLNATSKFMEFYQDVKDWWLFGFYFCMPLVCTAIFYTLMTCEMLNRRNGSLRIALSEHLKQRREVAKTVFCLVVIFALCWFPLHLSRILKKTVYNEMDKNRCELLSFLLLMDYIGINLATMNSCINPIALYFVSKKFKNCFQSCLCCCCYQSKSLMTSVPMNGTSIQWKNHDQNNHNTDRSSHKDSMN
The experiment in a line: Tested for binding affinity towards human Endothelin A receptor.

The target of assay [2] is T2, Endothelin receptor type B (Homo sapiens, UniProt P24530).
T2 sequence (P24530 whole entry): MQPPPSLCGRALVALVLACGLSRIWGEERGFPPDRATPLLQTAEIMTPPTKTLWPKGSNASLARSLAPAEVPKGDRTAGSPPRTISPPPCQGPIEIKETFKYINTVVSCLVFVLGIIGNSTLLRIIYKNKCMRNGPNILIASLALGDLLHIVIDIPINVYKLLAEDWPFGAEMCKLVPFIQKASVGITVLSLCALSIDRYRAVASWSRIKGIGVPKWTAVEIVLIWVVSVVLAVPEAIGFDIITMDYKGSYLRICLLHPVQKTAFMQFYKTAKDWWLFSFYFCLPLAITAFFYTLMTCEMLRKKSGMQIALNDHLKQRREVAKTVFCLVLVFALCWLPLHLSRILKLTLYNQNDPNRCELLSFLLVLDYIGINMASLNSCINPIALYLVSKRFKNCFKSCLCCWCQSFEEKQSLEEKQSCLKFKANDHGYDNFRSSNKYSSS
The assay is described as follows: Tested for binding affinity towards human Endothelin B receptor.

pIC50: −log10 of the molar value. Bounds are passed on as bounds.

On to `C/C=C/C=C/C=C/C(=O)O[C@@H]1C=C2COC(O)[C@]2(O)[C@@]2(C)CCCC(C)(C)C12` (stereo partly drawn), for which the pIC50 in assay [1] is 4.21.
Turning to `C/C=C/C=C/C(=O)O[C@@H]1C=C2COC(OC)[C@]2(O)CC1` (stereo partly drawn), the pIC50 in assay [1] is 5.09; in assay [2], less than 4.60.
Regarding `C/C=C/C=C/C(=O)O[C@@H]1C=C2COC(=O)[C@]2(O)CC1`, the pIC50 in assay [1] was 5.59; in assay [2] it was less than 4.60.
`C/C=C/C=C/C(=O)O[C@@H]1C=C2COC(O)[C@]2(O)CC1` (stereo partly drawn) had a pIC50 in assay [2] of less than 4.60.
For `C/C=C/C=C/C(=O)O[C@@H]1C=C2COC(O)[C@]2(O)[C@@]2(C)CCCC(C)(C)C12` (stereo partly drawn), the results for the pIC50 in assay [1] and in assay [2] were less than 3.60 and 3.83, respectively.
